Results from US9206164B2, “Pyrazole compounds as CRTH2 antagonists” (Boehringer Ingelheim International GmbH, priority 2011, dated 2015).

Biological target: human CRTH2 receptor (Homo sapiens (Human), UniProt Q9Y5Y4)
Assay: CRTH2 receptor radioligand binding assay (SPA, [3H]-PGD2 displacement)
Settings: antagonistic activities of selected compounds
Method: The binding of CRTH2 antagonists is determined using membranes prepared from Chinese hamster ovary cells (CHO-K1 cells) transfected with the human CRTH2 receptor (CHO-K1-hCRTH2 cells, Perkin Elmer, Cat No ES-561-C). To produce cell membranes the CHO-K1-hCRTH2 cells are cultured in suspension in CHO SFMII medium supplemented with 400 μg/ml G418. The cells are harvested by centrifugation at 300 g for 10 min at room temperature. The cell pellet is resuspended in Phosphate Buffer Saline (PBS) including a protease inhibitor mix (Complete, Roche) and adjusted to a concentration of 10E7 cells/ml. The CHO-K1-hCRTH2 cells are disrupted by nitrogen […] to obtain the membrane preparation. Cell debris is removed by centrifugation (500 g at 4° C., 30 min) and the supernatant is transferred into fresh tubes followed by a second centrifugation at 40000 g for 1 h at 4° C. to sediment the membranes. The membranes are suspended in SPA incubation buffer (50 mM Tris HCl, 10 mM MgCl2, 150 mM NaCl, 1 mM EDTA, pH 7.4) without bovine serum albumin, homogenized by passing through a single use needle (Terumo, 23G×1″), and stored in aliquots at −80° C.
The CRTH2 receptor binding assay is performed in a scintillation proximity assay (SPA) format with the radioligand [^3H]-PGD2 (Perkin Elmer, NET616000MC). CHO-K1-hCRTH2 cell membranes are again homogenized by passing through a single use needle (Terumo, 23G×1″) and diluted in SPA incubation buffer in suitable concentrations (0.5-10 μg protein/well). The SPA assay is set up in 96 well microtiter plates (Perkin Elmer, CatNo. 6005040) in SPA incubation buffer with a final volume of 200 μl per well and final concentration of 50 mM Tris-HCl, 10 mM MgCl2, 150 mM NaCl, 1 mM EDTA pH 7.4, 0.1% bovine serum albumin). The SPA assay mixture contains 60 μl of the membrane suspension, 80 μl of Wheat Germ Agglutinin coated PVT beads (GE Healthcare, RPNQ-0001, 0.3 mg/well), 40 μl of [^3H]-PGD2 diluted in SPA buffer to a final concentration of 1 nM (50 000 dpm) and 20 μl of the test compound (dissolved in dimethylsulfoxid). The SPA assay mixture is incubated for 3 h at room temperature. Bound radioactivity is determined with a scintillation counter (Micro Beta Trilux, Wallac).
The binding of [^3H]-PGD2 to CHO-K1-hCRTH2 cell membranes is determined in the absence (total binding, Bo) and presence (non-specific binding, NSB) of unlabelled PGD2 (1 μM, Cayman Chemical, Cat No 12010) or a reference CRTH2 antagonist (10 μM CAY10471, Cayman Chemical, Cat No 10006735).
Determination of the affinity of a test compound is calculated by subtraction of the non-specific binding (NSB) from the total binding (Bo) or the binding in the presence of the test compound (B) at a given compound concentration. The NSB value is set to 100% inhibition. The Bo−NSB value is set to 0% inhibition.
% inhibition values were obtained at a defined compound concentration, e.g. at 1 μM, % inhibition of the test compound was calculated by the formula 100−((B−NSB)*100/(Bo−NSB)). % inhibition values above 100% are founded by assay variance.

Chain of human CRTH2 receptor (Q9Y5Y4 whole entry): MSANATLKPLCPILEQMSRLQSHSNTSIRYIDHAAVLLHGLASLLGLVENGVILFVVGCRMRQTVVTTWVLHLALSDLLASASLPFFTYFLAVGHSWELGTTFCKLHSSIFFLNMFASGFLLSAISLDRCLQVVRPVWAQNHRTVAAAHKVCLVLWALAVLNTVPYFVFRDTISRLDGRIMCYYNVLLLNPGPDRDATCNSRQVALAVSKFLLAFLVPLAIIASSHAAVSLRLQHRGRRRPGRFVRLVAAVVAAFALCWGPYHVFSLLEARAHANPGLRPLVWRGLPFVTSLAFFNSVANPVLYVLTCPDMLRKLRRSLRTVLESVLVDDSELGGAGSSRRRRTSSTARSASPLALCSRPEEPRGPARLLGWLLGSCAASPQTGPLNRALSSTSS

| Molecule | Ki [nM] |
| --- | --- |
| CCc1nn(Cc2ccc(-c3nc4c(F)cccc4[nH]3)cc2)c(CC)c1CC(=O)O [Compound 67] | 1.7 |
| CCc1nn(Cc2ccc(-c3nc4cc(C(C)(C)C)ccc4[nH]3)cc2)c(CC)c1CC(=O)O [Compound 68] | 0.2 |
| CCc1nn(Cc2ccc(-c3nc4cc(Cl)ccc4n3C)cc2)c(CC)c1CC(=O)O [Compound 69] | 61.2 |
| Cc1nn(Cc2ccc(-c3nc4cncnc4[nH]3)cc2)c(C)c1CC(=O)O [Compound 70] | 432 |
| Cc1nn(Cc2ccc(-c3nc4cc(F)ccc4[nH]3)cc2)c(C)c1CC(=O)O [Compound 71] | 8.5 |
| Cc1nn(Cc2ccc(-c3nc4ccncc4[nH]3)cc2F)c(C)c1CC(=O)O [Compound 72] | 636 |
| Cc1nn(Cc2ccc(-c3nc4c(Cl)cc(Cl)cc4[nH]3)cc2F)c(C)c1CC(=O)O [Compound 73] | 2.5 |
| CCc1nn(Cc2ccc(-c3nc4c(F)cccc4[nH]3)cc2F)c(CC)c1CC(=O)O [Compound 74] | 1.2 |
| CCc1nn(Cc2ccc(-c3nc4cc(OC)ccc4[nH]3)cc2F)c(CC)c1CC(=O)O [Compound 75] | 1 |
| CCc1nn(Cc2ccc(-c3nc4cc(F)c(Cl)cc4[nH]3)cc2F)c(CC)c1CC(=O)O [Compound 76] | 0.6 |
| Cc1nn(Cc2ccc(-c3nc4c(F)cc(F)cc4[nH]3)cc2F)c(C)c1CC(=O)O [Compound 77] | 5.5 |
| Cc1nn(Cc2ccc(-c3nc4cc(C#N)ccc4[nH]3)cc2F)c(C)c1CC(=O)O [Compound 78] | 21.7 |
| CCc1nn(Cc2ccc(-c3nc4nc(OC)ccc4[nH]3)cc2F)c(CC)c1CC(=O)O [Compound 79] | 1.3 |
| CCc1nn(Cc2ccc(-c3nc4cc(Cl)ccc4[nH]3)cc2F)c(CC)c1CC(=O)O [Compound 80] | 0.5 |
| CCc1nn(Cc2ccc(-c3nc4cc(C#N)ccc4[nH]3)cc2F)c(CC)c1CC(=O)O [Compound 81] | 2.6 |
| CCc1nn(Cc2ccc(-c3nc4cc(F)ccc4[nH]3)cc2F)c(CC)c1CC(=O)O [Compound 82] | 1 |
| CCc1nn(Cc2ccc(-c3nc4c(C)cccc4[nH]3)cc2F)c(CC)c1CC(=O)O [Compound 83] | 1.3 |
| CCc1nn(Cc2ccc(-c3nc4c(F)c(F)ccc4[nH]3)cc2F)c(CC)c1CC(=O)O [Compound 84] | 0.8 |
| Cc1nn(Cc2ccc(-c3nc4cncc(C)c4[nH]3)cc2F)c(C)c1CC(=O)O [Compound 85] | 683 |
| Cc1nn(Cc2ccc(-c3nc4cc(F)ccc4[nH]3)cc2F)c(C)c1CC(=O)O [Compound 86] | 6.5 |
| CCc1nn(Cc2ccc(-c3nc4cc(Br)ccc4[nH]3)cc2F)c(CC)c1CC(=O)O [Compound 87] | 0.4 |
| CCc1nn(Cc2ccc(-c3nc4cc(Br)cnc4[nH]3)cc2F)c(CC)c1CC(=O)O [Compound 89] | 2.6 |
| CCc1nn(Cc2ccc(-c3nc4ccncc4[nH]3)cc2F)c(CC)c1CC(=O)O [Compound 90] | 60.9 |

| Molecule | Ki [nM] |
| --- | --- |
| Cc1ccc2[nH]c(-c3ccc(Cn4nc(C)c(CC(=O)O)c4C)c(F)c3)nc2c1 [Compound 91] | 3.7 |
| COc1ccc2[nH]c(-c3ccc(Cn4nc(C)c(CC(=O)O)c4C)c(F)c3)nc2n1 [Compound 92] | 0.7 |
| Cc1nn(Cc2ccc(-c3nc4c(C)cccc4[nH]3)cc2F)c(C)c1CC(=O)O [Compound 93] | 12.8 |
| Cc1nn(Cc2ccc(-c3nc4cc(Br)ccc4[nH]3)cc2F)c(C)c1CC(=O)O [Compound 94] | 1.6 |
| CCc1nn(Cc2ccc(-c3nc4cc(Cl)cnc4[nH]3)cc2F)c(CC)c1CC(=O)O [Compound 95] | 5.1 |
| COc1ccc2[nH]c(-c3ccc(Cn4nc(C)c(CC(=O)O)c4C)c(F)c3)nc2c1 [Compound 96] | 5.7 |
| Cc1nn(Cc2ccc(-c3nc4cc(C(C)(C)C)ccc4[nH]3)cc2F)c(C)c1CC(=O)O [Compound 97] | 0.9 |
| CCc1nn(Cc2ccc(-c3nc4cc(C(C)(C)C)ccc4[nH]3)cc2F)c(CC)c1CC(=O)O [Compound 98] | 0.1 |
| Cc1nn(Cc2ccc(-c3nc4c(F)cccc4[nH]3)cc2F)c(C)c1CC(=O)O [Compound 99] | 9.7 |
| Cc1nn(Cc2ccc(-c3nc4cc(Cl)cnc4[nH]3)cc2F)c(C)c1CC(=O)O [Compound 100] | 18.5 |
| CCc1nn(Cc2ccc(-c3nc4c(F)cc(F)cc4[nH]3)cc2F)c(CC)c1CC(=O)O [Compound 101] | 1.1 |
| Cc1nn(Cc2ccc(-c3nc4cc(F)c(Cl)cc4[nH]3)cc2F)c(C)c1CC(=O)O [Compound 102] | 2.1 |
| CCc1nn(Cc2ccc(-c3nc4cncc(C)c4[nH]3)cc2F)c(CC)c1CC(=O)O [Compound 103] | 87.6 |
| CCc1nn(Cc2ccc(-c3nc4c(Cl)cc(Cl)cc4[nH]3)cc2F)c(CC)c1CC(=O)O [Compound 104] | 0.7 |
| Cc1nn(Cc2ccc(-c3nc4c(F)c(F)ccc4[nH]3)cc2F)c(C)c1CC(=O)O [Compound 105] | 5.1 |
| CCc1nn(Cc2ccc(-c3nc4cc(C)c(Cl)cc4[nH]3)cc2F)c(CC)c1CC(=O)O [Compound 106] | 0.3 |
| Cc1nn(Cc2ccc(-c3nc4cccnc4[nH]3)cc2F)c(C)c1CC(=O)O [Compound 107] | 87.4 |
| Cc1nn(Cc2ccc(-c3nc4cc(Cl)ccc4[nH]3)cc2F)c(C)c1CC(=O)O [Compound 108] | 2.3 |
| Cc1cc2nc(-c3ccc(Cn4nc(C)c(CC(=O)O)c4C)c(F)c3)[nH]c2cc1Cl [Compound 109] | 1.8 |
| Cc1nn(Cc2cccc(-c3nc4cc(C(F)(F)F)ccc4[nH]3)c2)c(C)c1CC(=O)O [Compound 110] | 287 |
| Cc1nn(Cc2ccc(-c3nc4cc(C(F)(F)F)ccc4[nH]3)cc2F)c(C)c1CC(=O)O [Compound 111] | 2.5 |
| (3,5-Diethyl-1-[2-fluoro-4-(3H-imidazo[4,5-b]pyridin-2-yl)benzyl]-1H-pyrazol-4-yl)acetic Acid [Compound 13] | 16.2 |
